Values joined by “and” are separate entries in the source; they are usually repeats but may differ in a detail not shown here. Identical values can stand only once. Toxic doses and inconclusive results are not listed. The calls were made as follows: active = survival T/C of 150% or more; inactive = T/C below 125% in these data.
Test system: P388 leukemia ip, CD2F1 mice, survival T/C
Test: NCI In Vivo Anticancer Drug Screen. Data for tumor model P388 Leukemia (intraperitoneal) in CD2F1 (CDF1) mice
Conditions: endpoint: median survival time, higher = longer survival
Outline: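 Mice carrying the transplanted tumor received test compound or vehicle. Survival was recorded in each group, and the value is the treated-group measurement divided by that of the vehicle-treated control group.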

[1] = dose: 50.0 mg/kg/injection, schedule: Q01DX009 (ip), vehicle: saline
[2] = dose: 100.0 mg/kg/injection, schedule: Q01DX009 (ip), vehicle: saline
[3] = dose: 100.0 mg/kg/injection, schedule: Q01DX001 (ip), vehicle: Klucel (hydroxypropylcellulose) (HPC)
[4] = dose: 200.0 mg/kg/injection, schedule: Q01DX001 (ip), vehicle: Klucel (hydroxypropylcellulose) (HPC)
[5] = dose: 400.0 mg/kg/injection, schedule: Q01DX001 (ip), vehicle: Klucel (hydroxypropylcellulose) (HPC)
[6] = dose: 50.0 mg/kg/injection, schedule: Q01DX005 (ip), vehicle: saline with Tween-80
[7] = dose: 100.0 mg/kg/injection, schedule: Q01DX005 (ip), vehicle: saline with Tween-80
[8] = dose: 50.0 mg/kg/injection, schedule: Q01DX005 (ip), vehicle: Klucel (hydroxypropylcellulose) (HPC)
[9] = dose: 100.0 mg/kg/injection, schedule: Q01DX005 (ip), vehicle: Klucel (hydroxypropylcellulose) (HPC)
[10] = dose: 200.0 mg/kg/injection, schedule: Q01DX005 (ip), vehicle: Klucel (hydroxypropylcellulose) (HPC)
[11] = dose: 60.0 mg/kg/injection, schedule: Q01DX005 (ip), vehicle: saline with Tween-80
[12] = dose: 120.0 mg/kg/injection, schedule: Q01DX005 (ip), vehicle: saline with Tween-80
[13] = dose: 240.0 mg/kg/injection, schedule: Q01DX005 (ip), vehicle: saline with Tween-80
[14] = dose: 50.0 mg/kg/injection, schedule: Q01DX009 (ip), vehicle: Klucel (hydroxypropylcellulose) (HPC)
[15] = dose: 100.0 mg/kg/injection, schedule: Q01DX009 (ip), vehicle: Klucel (hydroxypropylcellulose) (HPC)
[16] = dose: 200.0 mg/kg/injection, schedule: Q01DX009 (ip), vehicle: Klucel (hydroxypropylcellulose) (HPC)
[17] = dose: 12.5 mg/kg/injection, schedule: Q01DX009 (ip), vehicle: Klucel (hydroxypropylcellulose) (HPC)
[18] = dose: 25.0 mg/kg/injection, schedule: Q01DX009 (ip), vehicle: Klucel (hydroxypropylcellulose) (HPC)

Measured: T/C

Cc1cc(N=NC(N)=S)c2ccccc2c1O
inactive: dose: 25.0 mg/kg/injection, schedule: Q04DX003 (ip), vehicle: Klucel (hydroxypropylcellulose) (HPC) 100 % of control | dose: 50.0 mg/kg/injection, schedule: Q04DX003 (ip), vehicle: Klucel (hydroxypropylcellulose) (HPC) 97 % of control | dose: 100.0 mg/kg/injection, schedule: Q04DX003 (ip), vehicle: Klucel (hydroxypropylcellulose) (HPC) 102 % of control | dose: 200.0 mg/kg/injection, schedule: Q04DX003 (ip), vehicle: Klucel (hydroxypropylcellulose) (HPC) 100 % of control

COc1ccc2cc3cnccc3cc2c1OC
inactive: dose: 12.5 mg/kg/injection, schedule: Q01DX009 (ip), vehicle: water 99 % of control | dose: 25.0 mg/kg/injection, schedule: Q01DX009 (ip), vehicle: water 97 % of control | dose: 50.0 mg/kg/injection, schedule: Q01DX009 (ip), vehicle: water 94 % of control | dose: 100.0 mg/kg/injection, schedule: Q01DX009 (ip), vehicle: water 102 % of control | dose: 200.0 mg/kg/injection, schedule: Q01DX009 (ip), vehicle: water 96 % of control

ClCC1OCCO1
inactive: [1] 116 % of control | [2] 116 % of control

BrC1C(c2ccccc2)=NOC12CN=C(c1ccccc1)O2 (stereo not given)
inactive: [3] 101 % of control | [4] 99 % of control | [5] 96 % of control

CN=C(N/N=C(C)\C=N\NC(=NC)N(C)C)N(C)C
inactive: [6] 109 % of control | [7] 105 % of control | dose: 200.0 mg/kg/injection, schedule: Q01DX005 (ip), vehicle: saline with Tween-80 105 % of control

O=C(Nc1n[nH]c(NC(=O)C(F)(F)F)n1)C(F)(F)F
inactive: [8] 103 % of control | [9] 103 % of control | [10] 100 % of control

O=C1CSC(c2cccc(O)c2O)N1c1nncs1 (stereo not given)
inactive: [11] 111 % of control | [12] 96 % of control | [13] 96 % of control

Nc1ccc(C2C(=[N+]([O-])[O-])C=C([N+](=O)[O-])c3[nH]o[n+](=O)c32)cc1 (stereo not given)
inactive: dose: 50.0 mg/kg/injection, schedule: Q01DX001 (ip), vehicle: saline with Tween-80 100 % of control | dose: 100.0 mg/kg/injection, schedule: Q01DX001 (ip), vehicle: saline with Tween-80 100 % of control

O=C(Cc1cc2c(cc1Br)OCO2)NCCc1ccc2c(c1)OCO2
inactive: dose: 12.5 mg/kg/injection, schedule: Q01DX001 (ip), vehicle: saline + alcohol 99 % of control | dose: 25.0 mg/kg/injection, schedule: Q01DX001 (ip), vehicle: saline + alcohol 98 % of control | dose: 50.0 mg/kg/injection, schedule: Q01DX001 (ip), vehicle: saline + alcohol 105 % of control

COc1ccc(C(=O)CCc2c(-c3ccccc3)[nH]c3ccccc23)c(O)c1
inactive: [11] 107 % of control | [12] 100 % of control | [13] 97 % of control

CCCC(NC(N)=O)C(CCC)NC(N)=O (stereo not given)
inactive: dose: 50.0 mg/kg/injection, schedule: Q01DX009 (ip), vehicle: saline with Tween-80 102 % of control

O=C(CC1CCCC/C1=N\O)NO (stereo not given)
inactive: [14] 100 % of control | [3] 106 % of control | [15] 100 % of control | [4] 112 % of control | [16] 117 % of control | [5] 109 % of control

CN1CCC2(C)CC(Br)(Cc3ccccc32)C1Cl (stereo not given)
inactive: [8] 108 % of control | [9] 106 % of control

c1ccc(P2CCc3[nH]c4ccccc4c3C2)cc1 (stereo not given)
inactive: dose: 50.0 mg/kg/injection, schedule: Q04DX003 (ip), vehicle: saline with Tween-80 101 % of control | dose: 100.0 mg/kg/injection, schedule: Q04DX003 (ip), vehicle: saline with Tween-80 105 % of control and 110 % of control | dose: 200.0 mg/kg/injection, schedule: Q04DX003 (ip), vehicle: saline with Tween-80 103 % of control and 120 % of control | dose: 400.0 mg/kg/injection, schedule: Q04DX003 (ip), vehicle: saline with Tween-80 114 % of control

Cc1[nH]c2ccc(N(C)C)cc2c(=O)c1CN(C)C
inactive: [14] 105 % of control | [15] 108 % of control

CC(=O)Nc1ccc2nc(SC(C)C)sc2c1
inactive: dose: 6.25 mg/kg/injection, schedule: Q01DX009 (ip), vehicle: Klucel (hydroxypropylcellulose) (HPC) 104 % of control | [17] 102 % of control | [18] 96 % of control

COc1ccc2nc(-c3ccccc3)cc(N=[N+]=[N-])c2c1
inactive: [11] 100 % of control | [12] 97 % of control | [13] 102 % of control

Cc1cc2c(C(C)C)c(O)c(O)c(C=Nc3ccc(C(=O)NCC(=O)O)cc3)c2c(O)c1-c1c(C)cc2c(C(C)C)c(O)c(O)c(C=Nc3ccc(C(=O)NCC(=O)O)cc3)c2c1O
inactive: [6] 94 % of control | [7] 100 % of control

C[Si](C)(C)CNC(=S)S
inactive: [11] 113 % of control | [12] 115 % of control | [13] 112 % of control

O=C(O)C1=CO[C@@H](OC2OC(CO)C(O)C(O)C2O)[C@H]2[C@@H]1C=C[C@]2(O)CO (stereo not given in full)
inactive: dose: 4.68 mg/kg/injection, schedule: Q01DX009 (ip), vehicle: Klucel (hydroxypropylcellulose) (HPC) 101 % of control | dose: 9.37 mg/kg/injection, schedule: Q01DX009 (ip), vehicle: Klucel (hydroxypropylcellulose) (HPC) 97 % of control | dose: 18.75 mg/kg/injection, schedule: Q01DX009 (ip), vehicle: Klucel (hydroxypropylcellulose) (HPC) 97 % of control | dose: 37.5 mg/kg/injection, schedule: Q01DX009 (ip), vehicle: Klucel (hydroxypropylcellulose) (HPC) 94 % of control | dose: 75.0 mg/kg/injection, schedule: Q01DX009 (ip), vehicle: Klucel (hydroxypropylcellulose) (HPC) 98 % of control and 90 % of control | dose: 150.0 mg/kg/injection, schedule: Q01DX009 (ip), vehicle: Klucel (hydroxypropylcellulose) (HPC) 97 % of control

C=CCCC(=O)OC(C)(C)C
inactive: [17] 102 % of control | [18] 101 % of control | [14] 104 % of control | [15] 101 % of control | [16] 103 % of control

CC1=C(C)NC(C)=C(C)N1
inactive: [1] 97 % of control | [2] 95 % of control | dose: 200.0 mg/kg/injection, schedule: Q01DX009 (ip), vehicle: saline 97 % of control

COc1ccc2c(c1)CCc1c-2n[nH]c1-c1[nH]nc2c1CCc1cc(OC)ccc1-2
inactive: dose: 60.0 mg/kg/injection, schedule: Q01DX005 (ip), vehicle: Klucel (hydroxypropylcellulose) (HPC) 93 % of control | dose: 120.0 mg/kg/injection, schedule: Q01DX005 (ip), vehicle: Klucel (hydroxypropylcellulose) (HPC) 93 % of control | dose: 240.0 mg/kg/injection, schedule: Q01DX005 (ip), vehicle: Klucel (hydroxypropylcellulose) (HPC) 94 % of control

Cc1ccc(S(=O)(=O)OC2CN(S(=O)(=O)c3ccc(C)cc3)C2)cc1
inactive: [8] 100 % of control | [9] 91 % of control | [10] 90 % of control

CN(C)C1(c2ccc3ccccc3c2)CS(=O)(=O)C1
inactive: dose: 100.0 mg/kg/injection, schedule: Q04DX002 (ip), vehicle: saline with Tween-80 100 % of control | dose: 200.0 mg/kg/injection, schedule: Q04DX002 (ip), vehicle: saline with Tween-80 98 % of control | dose: 400.0 mg/kg/injection, schedule: Q04DX002 (ip), vehicle: saline with Tween-80 92 % of control

— PubChem BioAssay AID330 (DTP/NCI, 2004)
